The values below come from article PMC6947424, “New Targeted Gold Nanorods for the Treatment of Glioblastoma by Photodynamic Therapy” (Journal of Clinical Medicine, 2019).

Residues, ends and D or L forms follow the SMILES beside them. *: point of attachment. Pyropheophorbide(a) = C=Cc1c(C)c2cc3nc(c4c5[nH]c(cc6nc(cc1[nH]2)C(C)=C6CC)c(C)c5C(=O)C4)[C@@H](CCC(=O)*)[C@@H]3C; Hexanoyl(6-maleimido) = O=C1C=CC(=O)N1CCCCCC(=O)*

In one data set the test system is U87 glioblastoma cells. Nature of the data set: MTT cytotoxicity in the dark, U87 cells. The data set is classed as cell-based. Particulars: 24 h in the dark, n = 3. How it is done:
For in vitro experiments, U87 glioblastoma cells (ATCC® HTB-14™) were cultivated in Dulbecco’s modified eagle’s medium (DMEM) supplemented with sodium pyruvate 1.5 mM, MEM AA, MEM NE AA, MEM vitamins, L-Ser 14 μg·mL^−1, L-asp 25 μg·mL^−1, L-Glu 2.5 mM, 100 U·mL^−1 penicillin, 100 μg·mL^−1 streptomycin, and 20% FCS. They were cultured under standard cell culture conditions while incubated in 5% CO2/80% humidified air at 37 °C.
Cell survival of U87 after incubation with the hybrid AuNRs, the PS-peptide conjugate or the free PS in the dark (cytotoxicity) or after light exposure (phototoxicity) was investigated using an MTT assay as previously described. […] However, the phototoxicity induced by those molecules was assessed by exposing the cells to light at a fluence of 10 J·cm^−2 (fluence rate 4.54 mW·cm^−2, duration: 36 min 42 s) using a 652 nm diode laser system (Ceralas, Biolytec, Jena, Germany). […] The cell survival was measured by MTT assay where the cells were incubated for 3 h at 37 °C with 0.4 mg·mL^−1. […] The absorption of formazan was measured at 540 nm with a background subtraction at 630 nm using a Multiskan Ascent plate reader (Thermo Scientific, Vantaa, Finland). […]
All in vitro experiments were realized in triplicate and expressed as a percentage of variation from control cells. […]

Data set [1] can be described thus: Fluorescence emission (quantum yield and lifetime). In kind it is physicochemical. Particulars: ethanol; for τf (fluorescence lifetime): TCSPC, single exponential fit; for Φf (fluorescence quantum yield): excitation 412 nm, TPP in toluene as standard, 25 °C. How it is done: The setup and the protocol to evaluate the photophysical characterizations including the absorption, fluorescence, and singlet oxygen emission spectra in addition to the fluorescence and singlet oxygen lifetimes have been previously described by our team. The absorption spectra were recorded on a UV-3600 UV–vis double beam spectrophotometer (Shimadzu, Marne La Vallée, France) in the wavelength range of 200-800 nm. The measurements were performed on the molecules dispersed in ethanol in quartz cuvettes with an optical path of 10 mm. The fluorescence spectra were recorded on a Horiba Jobin Yvon Fluorolog-3 (FL3-222) spectrofluorimeter equipped with a 450W xenon lamp, a thermostated cell compartment (25 °C), a R928 (Hamamatsu, Massy, France) UV–vis photomultiplier and a liquid nitrogen cooled InGaAs infrared detector (DSS-16A020L Electro-Optical System Inc., Phoenixville, PA, USA). The excitation spectrometer used is a SPEX double grating monochromator (1200 grooves per mm blazed at 330 nm). The fluorescence was measured using the UV–vis detector through a SPEX double grating monochromator (600 grooves per mm blazed at 500 nm). The singlet oxygen production was measured using the IR detector through a SPEX double grating monochromator (600 grooves per mm blazed at 1 μm).
Fluorescence quantum yields (Φf) were determined using a tetraphenyl porphyrin (TPP) solution as the fluorescence standard (Φf = 0.11 in toluene, taking into account solvent refractive index and absorption efficiencies. For the direct determination of ^1O2 quantum yield (ΦΔ), excitation was performed with a Xe-arc, the light was separated in a SPEX 1680, 0.22 µm double monochromator. Detection at 1270 nm was carried out through a PTI S/N 1565 monochromator and the emission was monitored by a liquid nitrogen cooled Ge-detector (EO-817L, North Coast Scientific Co, OH, USA). Rose Bengal (RB) was chosen as a reference solution because of its high ^1O2 quantum yield in EtOH (ΦΔ = 0.68). The absorbance value at the excitation wavelengths (412 nm) of both the reference and the sample solutions were set to approximately 0.2 by dilution. The samples were all prepared in ethanol.
The quantum yield of fluorescence is determined by the equation (1):(1) Φf=Φf0×If/If0×[…]×(n/n0)^2 where Φf and Φf0, If and If0, DO and DO0, n and n0 are the quantum yields, intensities, optical densities and refraction indices of the sample and reference, respectively.
Fluorescence lifetimes were measured by Time-Correlated Single Photon Counting (TCSPC) using for excitation a pulsed laser diode LDH-P-C-405 coupled with a PDL 800-D driver (both from PicoQuant GmbH, Berlin, Germany) emitting at 408 nm (FWHM < 70 ps, 1 MHz) and an SPCM-AQR-15 avalanche photodiode (EG & G, Vaudreuil, Canada) coupled with a 650 nm (±10 nm) interference long-wave pass filter as the detection system. The acquisition system was a PicoHarp 300 module with a PHR-800 four-channel router (both from PicoQuant GmbH, Berlin, Germany). Fluorescence decays were recorded using the single photon counting method (four optical faced quartz cells for pure products in ethanol). Data were collected, and up to 1000 counts were accumulated in the maximum channel and analyzed using Fluofit TCSPC software (PicoQuant GmbH, Berlin, Germany) based on iterative reconvolution using a Levensberg-Marquandt algorithm. Singlet oxygen lifetime measurements have been performed on a TEMPRO-01 spectrophotometer (Horiba Jobin Yvon, Palaiseau, France). The apparatus was composed of a pulsed diode excitation source SpectraLED-415 emitting at 415 nm, a cuvette compartment, a Seya–Namioka type emission monochromator (600–2000 nm), and an H10330-45 near-infrared photomultiplier tube with a thermoelectric cooler (Hamamatsu, Massy, France) as the detection system. The system was monitored by a single photon counting controller FluoroHub-B and the software DataStation and DAS6 (Horiba Jobin Yvon, Palaiseau, France). […]

For `C=Cc1c(C)c2cc3nc(c4c5[nH]c(cc6nc(cc1[nH]2)C(C)=C6CC)c(C)c5C(=O)C4)[C@@H](CCC(=O)O)[C@@H]3C` [Pyro, pyropheophorbide-a, reference compound], in the data set on U87 glioblastoma cells (10 µM PS), the “dark cytotoxicity (metabolic activity of U87 cells)” value is on record as “decrease the metabolic activity of U87 cells”. Moreover, in data set [1], the “τf (fluorescence lifetime)” value was determined as 6.8 ns and the “Φf (fluorescence quantum yield)” value is reported as 0.38.

In the case of `C=Cc1c(C)c2cc3nc(c4c5[nH]c(cc6nc(cc1[nH]2)C(C)=C6CC)c(C)c5C(=O)C4)[C@@H](CCC(=O)NCCCC[C@H](NC(=O)CCCCCN1C(=O)C=CC1=O)C(=O)N[C@@H](CC(=O)O)C(=O)N[C@@H](CCCCN)C(=O)N1CCC[C@H]1C(=O)N1CCC[C@H]1C(=O)N[C@@H](CCCNC(=N)N)C(=O)O)[C@@H]3C` [MI-K(Pyro)DKPPR-OH] ({Hexanoyl(6-maleimido)}-K(Pyropheophorbide(a))DKPPR-OH), the dark cytotoxicity result with U87 glioblastoma cells (even at PS concentration of 30 µM) is given as “no cytotoxic effect”. Further, in data set [1], the “τf (fluorescence lifetime)” value was determined as 6.5 ns and the “Φf (fluorescence quantum yield)” value turned out to be 0.29.
